The record followed here is US6127387A, “Use of CD4-binding small molecules to inhibit immune responses” (Thomas Jefferson University, priority 1997, dated 2000).

“Also recorded” adds a separate entry of the source.

Assay [1] has as its target T1, CD4-MHC class II binding (Homo sapiens, UniProt P01730).
T1 construct: expressed in transfected cells; host or cells: COS-7 cells (CD4, plasmid T4-pcDNA3); Raji B cells (endogenous MHC class II)
In words: CD4-MHC class II cell adhesion (rosette formation) assay, CD4-transfected COS-7 cells with Raji B cells. Format: cell-based. As to conditions: 100 μM compound, FIG. 2. The source says: The capacity of a compound to inhibit the interaction of CD4 and class II MHC gene products can be determined by a cell rosetting assay. A cell line, such as Cos-7, Cos-1 or the like, can be transiently transfected with a plasmid bearing a human CD4 cDNA operably linked to a promoter. In an alternative embodiment a COS-1 cell line can be stably transformed with a human CD4 expression plasmid. The human CD4expressing cells and a human class II MHC expressing cell are mixed so that cellular rosettes are formed.
No inhibition of resetting was observed when CD8-pcDNA3 transfected cells were rosetted with Raji cells, which also express MHC, class I products.
The sequence of human CD4 CDNA is given in Maddon, P. J. et al., 1985, CELL 42:93-104, which sequence is hereby incorporated by reference in its entirety. Maddon et al. refers to human CD4 as "T4." The plasmid T4-pMV7, containing the human CD4 cDNA is available from the AIDS Research and Reference Reagent Program, Division of AIDS, NIAID, NIH (McKesson BioServices, Rockville, Md.). The 3.0 Kb Eco R1 fragment of T4-pMV7 contains the 1.5 Kb CD4 CDNA.
For transfection of COS-7 cells, a CD4-expression plasmid T4-pcDNA3, was constructed by subcloning the 3.0 Kb Eco R1 fragment of T4-pMV7 into the EcoRI site of the mammalian expression vector pcDNA3 (INVITROGEN). Transfection was accomplished by DOSPER liposomal transfection reagent (BOEHRINGER MANNHEIM), by the following modification of the manufacturer's protocol.
9. Determine the CD4 expression levels as a measure of transfection efficiency by flow cytometry analysis. Usually between 30% and 40% of transfected COS-7 cells expressed human CD4 as defined by immunofluorescence binding assay for the interaction between CD4 and class II MHC proteins in the presence of organic chemicals by rosette formation: Raji B cells 10^7 in 1 ml of RPMI medium with 10% FCS and […] were added to each well 48 h post-transfection and incubated with transfected COS-7 cells in the presence of the test compound (individually 200 μM) at 37° C. for 1 h. Following incubation, wells were washed five or six times by dropping RPMI medium with FCS into wells. Rosette formation between Raji cells and transfected COS-7 cells was scored microscopically at 100-fold magnification. The number of rosette containing more than five Raji cells was counted in 10 random optical fields in each individual well; 300-400 rosettes per well were counted as the positive control for rosette formation without any inhibition in the absence of any chemicals. The inhibition activity for rosette formation for each chemical was determined by the ratio of the number of rosettes obtained in the presence of this chemical to the number of rosettes in the positive control. […]

The subject of assay [2] is (B6×CBA)F1 irradiated recipient mice. In words: CD4+ T cell-mediated graft-versus-host disease lethality. The assay is classed as in vivo, mouse. To be noted: 100 μg i.v. in 0.5% DMSO on days 0, 3 and 6 post-transplant, vs untreated control, p<0.001, FIG. 5. On the procedure:
The lead organic compound TJU103 (N-(3-indoylmethylene)-isonicotinic hydrazone) was tested for in vivo inhibition of CD4^+ T cell-mediatedgraft-versus-host disease lethality. (B6×CBA)F1 irradiated recipient mice were transplanted by i.v. injection with haploidentical (B6×DBA/2)F1 T cell-depleted bone marrow (ATBM) and CD4^+ T cells (3×10^6), which induces lethal graft-versus-host disease (GVHD). TJU103 was administered by i.v. injections at a dose of 100 μg in 0.5% DMSO on days 0, 3, and 6 post-transplant. […] Median survival times were calculated and statistical comparisons were performed by Wilcoxin signed-rank non-parametric analysis using SYSTAT 5.2 software.

In assay [3] the test system is B6 recipient mice with bm1 tail skin allografts. The assay can be described thus: Class I MHC disparate skin allograft survival (CD8+ T cell-mediated B6 anti-bm1 response). To be noted: TJU103 single i.v. 100 μg in 0.5% DMSO 3 hours before transplantation, vs 0.5% DMSO diluent, FIG. 7. Format: in vivo, mouse. Here is the method: The lead organic compound TJU103 (N-(3-indoylmethylene)-isonicotinic hydrazone) was tested for inhibition of CD8^+ T-cell mediated allograft survival using the CD8^+ T cell-mediated B6 anti-bm1 response. A single i.v. injection of 100 μg of TJU103 in 0.5% DMSO was administered into B6 recipient mice 3 hours before transplantation of MHC class I-disparate bm1 tail skin allografts following a modified method of Bailey and Usama (1960, Transplant Bull. 7:424 425). A group of mice were treated with anti-CD8 monoclonal antibody (2.43) as a […]. Median survival times were calculated and statistical comparisons were performed by Wilcoxin signed-rank non-parametric analysis using SYSTAT 5.2 software.

In assay [4] the test system is C57B1/6 mice challenged with C57B1/6.H-2^bm12 tail skin. The assay can be described thus: Class II MHC disparate skin allograft rejection (CD4+ T cell-mediated B6 anti-bm12 response). Format: in vivo, mouse. As to conditions: TJU103 single i.v. 100 μg in 0.5% DMSO 3 hours before transplantation, vs 0.5% DMSO diluent, FIG. 6. On the procedure:
The lead organic compounds were tested for inhibition of CD4^+ T cell-mediated skin allograft rejection using the MHC class II disparate model of C57B1/6 mice challenged with C57B1/6.H-2^bm12 tail skin. Following a modified method of Bailey and Usama (1960, Transplant. Bull. 7:424-425), donor tail skin grafts (0.25 cm×0.5 cm) were transplanted onto the ventral side of the tail of the recipient mouse, covered with a glass tube and held into position with short strips of adhesive tape for 2 days. The tubes were removed and the grafts monitored every other day for up to 80 days. […] Syngeneic grafts were also transplanted as negative controls for rejection. Median survival times (MST) were calculated and statistical comparisons were performed by Wilcoxin signed-rank non-parametric analysis utilizing SYSTAT 5.2 software.
The compounds were injected 3 hours before transplantation at a dosage of 50 μg in 0.2 ml 0.25% DMSO. […] Each group contained 4 animals except the TJU102 group, which contained 5 animals.
The lead organic compound TJU103 (N-(3-indoylmethylene)-isonicotinic hydrazone) was tested for inhibition of CD4^+ T cell-mediated skin allograft rejection using the CD4^+ T cell-mediated B6 anti-bm12 response. […] Median survival times were calculated and statistical comparisons were performed by Wilcoxin signed-rank non-parametric analysis using SYSTAT 5.2 software.

In assay [5] the test system is SJL mice. In words: EAE inhibition in vivo (PLP-induced acute EAE). Also on record: species or system mouse. To be noted: single i.v. injection of 50 μg in 0.25% DMSO on day 12 post-challenge, FIG. 3. On the procedure: The lead organic compounds were tested for in vivo immunosuppressive activity in murine EAE, an animal model for multiple sclerosis. An acute form of EAE was induced in SJL mice by subcutaneous challenge with proteolipid (PLP) epitope, MacRae, B. L., et al., 1995, J. Neuroimmunol. 60:17-28, (100 μg in 0.15 ml PBS emulsified in an equal volume of Complete Freund's Adjuvant) on days 0 and 7. Pertussis (Michigan Biological Products, Lansing Mich.) was administered 30 min after antigen injection on day 7 (0.25 ml containing 5×10^9 inactivated organisms, i.v.). Clinical symptoms of EAE were evaluated based on a 0-5 scale of ascending severity of symptoms, as previously described. Korngold, R., et al., 1986, Immunogenetics 24:309-315. The organic compounds were administered by a single i.v. injection of 50 μg of the compound in 0.25% DMSO (the compounds were not soluble in water alone) on day 12 post-challenge.

Compound `COc1ccc(-c2cn3c(n2)sc2ccccc23)cc1` [TJU102] came in with an inhibition at 100 µM in assay [1] greater than 40%.
On to `O=C(NN=Cc1c[nH]c2ccccc12)c1ccncc1` [TJU103, N-(3-indoylmethylene)-isonicotinic hydrazone], for which the “median survival time of GVHD recipients” value in assay [2] is given as “significantly prolongs the median survival time; also recorded: effective in prolonging median survival time”. In assay [3], the “survival time of bm1 allografts” value was “does not prolong survival time of the allografts”. Also, the “survival time of bm12 allografts” value in assay [4] is listed as “prolongs survival time of the allografts; also recorded: effective in prolonging the median survival time of the allografts”. Also, in assay [5], the “severity of EAE” value was “statistically significant effect”. The compound also displayed an inhibition at 100 µM in assay [1] greater than 40%.
`Cn1c(CSCc2nc(-c3ccc(Cl)cc3)cs2)nnc1SCc1ccc(Cl)cc1` [TJU101, 5-(4-chlorobenzylthio)-3-{[(4-chlorophenyl)-2-thiazolyl]methylthiomethyl}-4-methyl-1,2,4-triazole] yielded an inhibition at 100 µM in assay [1] greater than 40%.
Take `O=C(Nc1ccc(Cl)cc1Cl)c1nc(Cn2cncn2)n[nH]1` [TJU104, N-(2,4-dichlorophenyl)-3-(1,2,4-triazol-1-ylmethyl)-1,2,4-triazole-5-carboxamide]: the “severity of EAE” value in assay [5] is given as “statistically significant effect”. Besides, in assay [1], the inhibition at 100 µM is greater than 40%.
